In patent US20070060620A1, “Use of RAR retinoid agonists to increase sperm count and sperm mobility in males” (priority 2005, published 2007):

Key:
[1] = test system: sperm count and sperm motility; settings: oral retinoids used for psoriasis or acne; cited from earlier work
[2] = plasma levels and half-life after clinical dosing with tazarotene; assay type: in vivo
Excerpt: Thus, tazarotene and other RAR-specific retinoids are used in the method of the present invention to help with male infertility that is due to low sperm counts and/or low sperm motility. Furthermore, retinoids such as tazarotene may be used in any situation in which couples are trying to conceive, where a boost to sperm production/motility could bring about an increase in the chances that a female could become pregnant. As a practical matter, since retinoids at doses likely to be effective in these circumstances are highly teratogenic, an unintended effect might arise from the transfer of the retinoid to a female in the ejaculate of the male. […] Thus, in a period of 3 days, levels of retinoid in plasma (and also in seminal fluid) would be less than 2%, and after about one week would be less than 0.01% of the original levels. Clinical dosing with tazarotene (eg at 3-6 mg) provide levels of tazarotenic acid (the major metabolite of tazarotene) in plasma of about 75-150 ng/mL study. Thus, in 3 days, plasma levels would be expected to drop to about 2-3 ng/mL (endogenous levels of retinoid agonists such as tretinoin, isotretinoin and 4-oxo-13-cis retinoic acid may easily total over 6 ng/mL). Sperm count and motility are likely to remain elevated for some time, since sperm maturation occurs over a period of 72-74 days.

[3] = phase 2 studies in patients with psoriasis and acne: systemic side-effect profile; assay type: in vivo, human; settings: compared with acitretin/etretinate and isotretinoin

levels of retinoid in plasma (and also in seminal fluid) relative to the original levels ([2]; after about one week of washout)	half-life ([2]; human, plasma, read-out: effective half-life in plasma) [h]	levels of retinoid in plasma (and also in seminal fluid) relative to the original levels ([2]; in a period of 3 days of washout)	Structure (SMILES)	effect on sperm count and sperm motility [1]	systemic side-effect profile [3]
			COc1cc(C)c(/C=C/C(C)=C/C=C/C(C)=C/C(=O)O)c(C)c1C [acitretin]	increase in sperm count and sperm motility	
			CCOC(=O)/C=C(C)/C=C/C=C(C)/C=C/c1c(C)cc(OC)c(C)c1C [etretinate]	increase in sperm count and sperm motility	
			CC1=C(/C=C/C(C)=C/C=C/C(C)=C\C(=O)O)C(C)(C)CCC1 [isotretinoin]	increase in sperm count and sperm motility	
less than 0.01%	7 to 12	less than 2%	CCOC(=O)c1ccc(C#Cc2ccc3c(c2)C(C)(C)CCS3)nc1 [tazarotene]		far better than those of acitretin/etretinate and isotretinoin
